System: Phosphorylation of STAT6 in human A549 cells
Experiment: Phosphorylated STAT6 (pSTAT6) flow cytometry assay in human A549 cells
Type: cell-based
Settings: read-out: STAT6 IL4 pSTAT6 assay in A549 cells: Average IC50
Source text: Example 3. Phosphorylated STAT6 (pSTAT6) Flow Cytometry Assay in Human A549 Cells
Phosphorylation of STAT6 in human A549 cells was quantitatively measured using flow cytometry technology.

Molecule | IC50 [nM]
COc1ccccc1-c1cc(C2=CCCN(C(=O)CCn3ccnn3)C2)c(F)c2[nH]c(C(=O)N3CCN(c4ccncc4OC)CC3)cc12 [Example I-365] | < 100
COc1ccccc1-c1cc(C2=CCCN(C(=O)CCn3ccnn3)C2)c(F)c2[nH]c(C(=O)N3CCN(c4c(C)cc[nH]c4=O)CC3)cc12 [Example I-1030] | < 100
COc1ccccc1-c1cc(C2=CCCN(C(=O)CCn3ccnn3)C2)c(F)c2[nH]c(C(=O)N3CCc4ncccc43)cc12 [Example I-974] | < 100
COc1ccccc1-c1cc(C2=CCCN(C(=O)CCn3ccnn3)C2)c(F)c2[nH]c(C(=O)N3CCN(CC4(C#N)CC4)CC3)cc12 [Example I-1014] | < 100
COc1ccccc1-c1cc(C2=CCCN(C(=O)CCn3ccnn3)C2)c(F)c2[nH]c(C(=O)N3CC4CN(c5ncccc5OC)CC4C3)cc12 (stereo not shown) [Example I-912] | 100 to 1000
COc1cc(F)cnc1N1CCN(C(=O)c2cc3c(-c4ccn(-c5ccccc5)n4)cc(C4=CCCN(C(=O)CCn5ccnn5)C4)c(F)c3[nH]2)CC1 [Example I-1113] | 100 to 1000
C[C@H](Cn1ccnn1)C(=O)N1CCC=C(c2ccc3oc(C(=O)N(C)C)cc3c2)C1 (single isomer, unassigned) [Example I-818] | 100 to 1000
COc1cccnc1N1CCN(C(=O)c2cc3c(-c4cn(C)nc4C)cc(C4=CCCN(C(=O)CCn5ccnn5)C4)c(F)c3[nH]2)CC1 [Example I-574] | < 100
COc1cc(F)cnc1N1CCN(C(=O)c2cc3c(/C=C/CCl)cc(C4=CCCN(C(=O)CCn5ccnn5)C4)c(F)c3[nH]2)CC1 [Example I-1162] | 1000 to 10000
CNc1cnc(N2CCN(C(=O)c3cc4c(-c5ccccc5OC)cc(C5=CCCN(C(=O)CCn6ccnn6)C5)c(F)c4[nH]3)CC2)c(OC)c1 [Example I-353] | < 100
C#CCOC1CCN(C(=O)c2cc3c(-c4ccccc4OC)cc(C4=CCCN(C(=O)CCn5ccnn5)C4)c(F)c3[nH]2)CC1 [Example I-1001] | < 100
COc1cccnc1N1CCN(C(=O)c2cc3c(-c4ccc5ccccc5c4OC)cc(C4=CCCN(C(=O)CCn5ccnn5)C4)c(F)c3[nH]2)CC1 [Example I-396] | > 100000
COc1cc(F)cnc1N1CCN(C(=O)c2cc3c(-c4ccnc(F)c4OC)cc(C4=CCCN(C(=O)CCn5ccnn5)C4)c(F)c3[nH]2)CC1 [Example I-656] | < 100
COc1ccccc1-c1cc(C2=CCCN(C(C)=O)C2)c(F)c2sc(C(=O)N3CCN(c4ncccc4OC)CC3)cc12 [Example I-1106] | 1000 to 10000
2-(3-(1-(cyclopropylmethyl)-7-(2-ethyl-6-methylpyridin-3-yl)-5-(4-(5-fluoro-3-methoxypyridin-2-yl)piperazine-1-carbonyl)-1H-indol-2-yl)-5,6-dihydropyridin-1(2H)-yl)-2-oxoacetic acid [Example I-1228] | < 100
CN(C)C(=O)c1cc2cc(C3=CCCN(C(=O)CCn4ccnn4)C3)cc(-c3ccc(C(F)(F)F)cc3O)c2o1 [Example I-1073] | < 100
CCc1ccncc1-c1cc(C2=CCCN(C(=O)OC)C2)c(F)c2[nH]c(C(=O)N3CCN(c4ncc(F)cc4OC)CC3)cc12 [Example I-708] | 10000 to 100000
CCC1CN(C)CCC1c1cc(C2=CCCN(C(=O)CCn3ccnn3)C2)c(F)c2[nH]c(C(=O)N3CCN(c4ncc(F)cc4OC)CC3)cc12 (stereo not shown) [Example I-781] | < 100
COc1ccncc1-c1cc(C2=CCCN(C(=O)CCn3ccnn3)C2)c(F)c2[nH]c(C(=O)N3CCN(c4cc5cc[nH]c5nc4C#N)CC3)cc12 [Example I-485] | < 100
CCc1cc(C(F)F)ncc1-c1cc(C2=CCCN(C(=O)CCn3ccnn3)C2)c(F)c2[nH]c(C(=O)N3CCN(c4nc(C)c(F)cc4OC)CC3)cc12 [Example I-763] | < 100
COc1ccncc1-c1cc(C2=CCCN(C(=O)CCn3ccnn3)C2)c(F)c2[nH]c(C(=O)N3CCN(c4nc(C)c(F)cc4OC)CC3)cc12 [Example I-500] | > 100000
CCOc1ccc(-c2cc(C3=CCCN(C(=O)CCn4ccnn4)C3)c(F)c3[nH]c(C(=O)N4CCN(c5ncc(F)cc5OC)CC4)cc23)c(OCC)c1 [Example I-618] | < 100
CCc1cnccc1-c1cc(C2=CCCN(C(C)=O)C2)c(F)c2[nH]c(C(=O)N3CCN(c4ncc(F)cc4OC)CC3)cc12 [Example I-706] | 10000 to 100000
COc1cc(F)cnc1N1CCN(C(=O)c2cc3c(-c4cccc(C)c4)cc(C4=CCCN(C(=O)CCn5ccnn5)C4)c(F)c3[nH]2)CC1 [Example I-673] | < 100
COc1ccccc1-c1cc(C2=CCCN(C(=O)CCn3ccnn3)C2)c(F)c2[nH]c(C(=O)N3CCC(=O)N(C)CC3)cc12 [Example I-994] | < 100
CN(C)C(=O)c1cc2ccc(C3=CCCN(C(=O)CCc4ccno4)C3)cc2[nH]1 [Example I-829] | 100 to 1000
COc1ccccc1-c1cc(C2=CCCN(C(=O)CCn3cccn3)C2)c(F)c2[nH]c(C(=O)N3CCN(c4ncc(F)cc4OC)CC3)cc12 [Example I-687] | < 100
Cc1[nH]nc2ccc(-c3cc(C4=CCCN(C(=O)CCn5ccnn5)C4)cc4cc(C(=O)N(C)C)oc34)cc12 [Example I-1075] | < 100

Molecule | IC50 [nM]
COCOc1ccc(F)cc1-c1cc(C2=CCCN(C(=O)CCn3ccnn3)C2)c(F)c2[nH]c(C(=O)N3CCN(c4ncc(F)cc4OC)CC3)cc12 [Example I-660] | < 100
CNc1cccnc1N1CCN(C(=O)c2cc3c(-c4ccccc4OC)cc(C4=CCCN(C(=O)CCn5ccnn5)C4)c(F)c3[nH]2)CC1 [Example I-439] | < 100
CCOc1cc(-c2cc(C3=CCCN(C(=O)CCn4ccnn4)C3)c(F)c3[nH]c(C(=O)N4CCN(c5ncc(F)cc5OC)CC4)cc23)cc(F)c1F [Example I-642] | 100 to 1000
CN(C)C(=O)c1cc2cc(C3=CCCN(C(=O)CCn4ccnn4)C3)cc(CN3CCNCC3)c2o1 [Example I-1179] | < 100
COc1cc(N2CCN(C(=O)c3cc4c(-c5ccccc5OC)cc(C5=CCCN(C(=O)CCn6ccnn6)C5)c(F)c4[nH]3)CC2)c2ccnn2c1 [Example I-926] | < 100
COc1cccnc1N1CCN(C(=O)c2cc3c(-c4cnccc4OC4CC4)cc(C4=CCCN(C(=O)CCn5ccnn5)C4)c(F)c3[nH]2)CC1 [Example I-556] | < 100
COc1ccccc1-c1cc(C2=CCCN(C(=O)CCn3ccnn3)C2)c(F)c2[nH]c(C(=O)N3CCN(c4nccc(-c5ccccc5)n4)CC3)cc12 [Example I-904] | 100 to 1000
COc1cc(F)cnc1N1CCN(C(=O)c2cc3c(-c4ccc(C)c(C#N)c4)cc(C4=CCCN(C(=O)CCn5ccnn5)C4)c(F)c3[nH]2)CC1 [Example I-648] | < 100
COc1cnccc1-c1cc(C2=CCCN(C(C)=O)C2)c(F)c2sc(C(=O)N(C)C)cc12 [Example I-554] | 100 to 1000
CCn1nccc1-c1cc(C(=O)N2Cc3cnn(CC)c3C2)cc2cc(C3=CCCN(C(=O)CCn4ccnn4)C3)n(CC3CC3)c12 [Example I-544] | < 100
COc1cccnc1N1CCN(C(=O)c2cc3c(-c4nc(C)[nH]c4C)cc(C4=CCCN(C(=O)CCn5ccnn5)C4)c(F)c3[nH]2)CC1 [Example I-572] | < 100
COc1cc(F)cnc1N1CCN(C(=O)c2cc3c(-c4cccc(-n5nc(C)cc5C)c4)cc(C4=CCCN(C(=O)CCn5ccnn5)C4)c(F)c3[nH]2)CC1 [Example I-620] | < 100
CC(=O)N1CCC=C(c2cc(-c3cc(C#N)ccc3C)c3cc(C(=O)N(C)C)[nH]c3c2F)C1 [Example I-884] | 100 to 1000
COc1cc(F)cnc1N1CCN(C(=O)c2cc3c(C4=CCOC4)cc(C4=CCCN(C(=O)CCn5ccnn5)C4)c(F)c3[nH]2)CC1 [Example I-639] | < 100
COc1ccccc1-c1cc(C2=CCCN(C(=O)CCn3ccnn3)C2)c(F)c2[nH]c(C(=O)N3CCN(c4cnc5nccnc5c4C)CC3)cc12 [Example I-944] | < 100
COc1ccccc1-c1cc(C2=CCCN(C(=O)CCn3ccnn3)C2)c(F)c2[nH]c(C(=O)N3CCN(c4ccc5n[nH]cc5c4)CC3)cc12 [Example I-859] | < 100
COc1ccccc1-c1cc(C2=CCCN(C(=O)CCn3ccnn3)C2)c(F)c2[nH]c(C(=O)N3CCN(C)C(c4ccccc4)C3)cc12 (stereo not shown) [Example I-911] | 100 to 1000
COc1ccccc1-c1cc(C2=CCCN(C(=O)CCn3ccnn3)C2)c(F)c2[nH]c(C(=O)N3CCN(c4ncc(C5CC5)cc4OC4CC4)CC3)cc12 [Example I-413] | 100 to 1000
COc1ccccc1N1CCN(C(=O)c2cc3c(-c4cnccc4OCF)cc(C4=CCCN(C(=O)CCn5ccnn5)C4)c(F)c3[nH]2)CC1 [Example I-405] | > 100000
(S)-5-(1-(2-formyl-1,2,3,4-tetrahydroisoquinoline-3-carbonyl)-1,2,5,6-tetrahydropyridin-3-yl)-7-(2-methoxyphenyl)-N,N-dimethylbenzofuran-2-carboxamide [Example I-805] | > 100000
COc1cc(F)cnc1N1CCN(C(=O)c2cc3c(-c4ccc5c(c4)c(C4CC4)nn5C)cc(C4=CCCN(C(=O)CCn5ccnn5)C4)c(F)c3[nH]2)CC1 [Example I-622] | < 100
COc1ccccc1-c1cc(C2=CCCN(C(=O)CCn3ccnn3)C2)c(F)c2[nH]c(C(=O)N3CCN(c4ncccc4OC(C)C)CC3)cc12 [Example I-332] | < 100
CCc1ccncc1-c1cc(C2=CCCN(C(=O)C(=O)O)C2)c(F)c2[nH]c(C(=O)N3CCN(c4ncc(F)cc4OC)CC3)cc12 [Example I-790] | < 100
CCc1nc(C)ccc1-c1cc(C(=O)N2CCN(c3ncc(F)cc3OC)CC2)cc2cc(C3=CCCN(C(=O)C(C)C(=O)O)C3)n(CC3CC3)c12 (stereo not shown) [Example I-539] | < 100
CNc1ccc(-c2cc([C@H]3CCCN(C(=O)CCn4ccnn4)C3)cc3[nH]c(C(=O)N(C)C)cc23)c(OC)c1 (single isomer, unassigned) [Example I-1194] | < 100
CCC1CN(C(=O)c2cc3c(-c4ccccc4OC)cc(C4=CCCN(C(=O)CCn5ccnn5)C4)c(F)c3[nH]2)CC=C1c1ccccn1 (racemic) [Example I-1042] | 10000 to 100000
CCc1ccncc1-c1cc(C2=CCCN(C(=O)C(C)C)C2)c(F)c2[nH]c(C(=O)N3CCN(c4ncc(F)cc4OC)CC3)cc12 [Example I-1044] | 1000 to 10000

Source: US20250214977A1, “STAT6 INHIBITORS AND USES THEREOF” (Kymera Therapeutics, Inc., priority 2024, published 2025)
